From patent publication US9376425B2, “Heterocyclic compounds as MDM2 inhibitors for the treatment of cancer” (AMGEN INC., priority 2011, dated 2016)

Target: T1, human MDM2 (GST-hMDM2 1-188), interaction with biotinylated-p53 (1-83) (Homo sapiens, UniProt Q00987)
T1 construct: Amino acid residues 1-188 of human MDM2 were expressed; made in house; host or cells: Escherichia coli
Assay: improved HTRF assay (HTRF2 assay), inhibition of HDM2-p53 interaction
Format: binding
Details: 0.2 nM GST-hMDM2, 0.5 nM biotinylated-p53, 100 mM KF
Outline: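 GST-hMDM2 preincubated 20 min at RT with serially diluted compound, then biotinylated p53 (1-83, E. coli) added for 60 min. Detection with SA-XLent, anti-GST cryptate and KF, equilibrated >4 h; final DMSO 2%. TR-FRET read; % inhibition calculated relative to nutlin-3.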

T1 sequence (Q00987 1-188): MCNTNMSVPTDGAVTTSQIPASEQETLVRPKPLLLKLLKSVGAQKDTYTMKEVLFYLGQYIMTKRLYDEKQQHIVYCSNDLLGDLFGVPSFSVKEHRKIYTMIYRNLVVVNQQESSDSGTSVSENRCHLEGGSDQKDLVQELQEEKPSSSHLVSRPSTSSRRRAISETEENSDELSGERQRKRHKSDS

**Q.** For `CC[C@@H](CS(=O)(=O)C(C)(C)C)N1C(=O)[C@H](CCO)O[C@H](c2cccc(Cl)c2)[C@H]1c1ccc(Cl)cc1` [Example 151, (2S,5R,6R)-4-((S)-1-(tert-butylsulfonyl)butan-2-yl)-6-(3-chlorophenyl)-5-(4-chlorophenyl)-2-(2-hydroxyethyl)morpholin-3-one], which IC50 is on record?
**A.** 22 nM

**Q.** How did the IC50 turn out when `CC(C)(C)S(=O)(=O)C[C@H](C1CC1)N1C(=O)[C@@H](CC(N)=O)O[C@H](c2cccc(Cl)c2)[C@H]1c1ccc(Cl)cc1` (single isomer, unassigned) [Example 356, 2-((2R,5R,6R)-4-((S)-2-(tert-Butylsulfonyl)-1-cyclopropylethyl)-6-(3-chlorophenyl)-5-(4-chlorophenyl)-3-oxomorpholin-2-yl)acetamide or 2-((2S,5R,6R)-4-((S)-2-(tert-butylsulfonyl)-1-cyclopropylethyl)-6-(3-chlorophenyl)-5-(4-chlorophenyl)-3-oxomorpholin-2-yl)acetamide] was run?
**A.** 10 nM

**Q.** How did the IC50 turn out when `CC(C)(C)S(=O)(=O)C[C@H](C1CC1)N1C(=O)[C@@H](CC(=O)O)O[C@H](c2ccc(F)c(Cl)c2)[C@H]1c1ccc(Cl)cc1` (single isomer, unassigned) [Example 321, 2-((2R,5R,6R)-4-((S)-2-(tert-Butylsulfonyl)-1-cyclopropylethyl)-6-(3-chloro-4-fluorophenyl)-5-(4-chlorophenyl)-3-oxomorpholin-2-yl)acetic acid or 2-((2S,5R,6R)-4-((S)-2-(tert-butylsulfonyl)-1-cyclopropylethyl)-6-(3-chloro-4-fluorophenyl)-5-(4-chlorophenyl)-3-oxomorpholin-2-yl)acetic acid] was run?
**A.** 2 nM

**Q.** How did the IC50 turn out when `CC[C@@H](CS(=O)(=O)N1CCC[C@@H]1C)N1C(=O)[C@@H](CC(=O)O)O[C@H](c2cccc(Cl)c2)[C@H]1c1ccc(Cl)cc1` (single isomer, unassigned) [Example 208, 2-((2R,5R,6R)-6-(3-chlorophenyl)-5-(4-chlorophenyl)-4-((S)-1-(((S)-2-methylpyrrolidin-1-yl)sulfonyl)butan-2-yl)-3-oxomorpholin-2-yl)acetic acid or 2-((2S,5R,6R)-6-(3-chlorophenyl)-5-(4-chlorophenyl)-4-((S)-1-(((S)-2-methylpyrrolidin-1-yl)sulfonyl)butan-2-yl)-3-oxomorpholin-2-yl)acetic acid] was run?
**A.** 2 nM

**Q.** Which IC50 does the source give for `C[C@@H](CS(=O)(=O)C(C)(C)C)N1C(=O)[C@H](CC(=O)N(C)C)O[C@H](c2cccc(Cl)c2)[C@H]1c1ccc(Cl)cc1` (single isomer, unassigned) [Example 231, 2-((2S,5R,6R)-4-((S)-1-(tert-butylsulfonyl)propan-2-yl)-6-(3-chlorophenyl)-5-(4-chlorophenyl)-3-oxomorpholin-2-yl)-N,N-dimethylacetamide or 2-((2R,5R,6R)-4-((S)-1-(tert-butylsulfonyl)propan-2-yl)-6-(3-chlorophenyl)-5-(4-chlorophenyl)-3-oxomorpholin-2-yl)-N,N-dimethylacetamide] here?
**A.** 16 nM

**Q.** Which IC50 does the source give for “2-((2R,5R,6R)-6-(3-Chlorophenyl)-5-(4-chlorophenyl)-4-((3S,5R)-5-hydroxyhexan-3-yl)-3-oxomorpholin-2-yl)acetic acid or 2-((2R,5R,6R)-6-(3-Chlorophenyl)-5-(4-chlorophenyl)-4-((3S,5S)-5-hydroxyhexan-3-yl)-3-oxomorpholin-2-yl)acetic acid [Example 127]” here?
**A.** 34 nM

**Q.** `CNC(=O)C[C@H]1O[C@H](c2cccc(Cl)c2)[C@@H](c2ccc(Cl)cc2)N([C@H](CN(c2ccccc2F)S(=O)(=O)C2CC2)C2CC2)C1=O` (single isomer, unassigned) [Example 364, 2-((2R,5R,6R)-6-(3-Chlorophenyl)-5-(4-chlorophenyl)-4-((S)-1-cyclopropyl-2-(N-(2-fluorophenyl)cyclopropanesulfonamido)ethyl)-3-oxomorpholin-2-yl)-N-methylacetamide or 2-((2S,5R,6R)-6-(3-chlorophenyl)-5-(4-chlorophenyl)-4-((S)-1-cyclopropyl-2-(N-(2-fluorophenyl)cyclopropanesulfonamido)ethyl)-3-oxomorpholin-2-yl)-N-methylacetamide] was tested. Which IC50 did it give?
**A.** < 1 nM
